Laboratory results taken from ChEMBL document CHEMBL4184321, “Fragment-Based Drug Discovery of Potent Protein Kinase C Iota Inhibitors” (J Med Chem, 2018).
In brackets after ≈: the same amount, converted by molar mass.

Experiments:
[1] = target: T1, Protein kinase C iota type (Homo sapiens, UniProt P41743); assay: Inhibition of full-length N-terminal GST-fused human PKC-iota expressed in baculovirus expression system using (5FAM) RFARKGSLRQKNV as substrate after 60 mins by caliper assay
T1 sequence (P41743 whole entry): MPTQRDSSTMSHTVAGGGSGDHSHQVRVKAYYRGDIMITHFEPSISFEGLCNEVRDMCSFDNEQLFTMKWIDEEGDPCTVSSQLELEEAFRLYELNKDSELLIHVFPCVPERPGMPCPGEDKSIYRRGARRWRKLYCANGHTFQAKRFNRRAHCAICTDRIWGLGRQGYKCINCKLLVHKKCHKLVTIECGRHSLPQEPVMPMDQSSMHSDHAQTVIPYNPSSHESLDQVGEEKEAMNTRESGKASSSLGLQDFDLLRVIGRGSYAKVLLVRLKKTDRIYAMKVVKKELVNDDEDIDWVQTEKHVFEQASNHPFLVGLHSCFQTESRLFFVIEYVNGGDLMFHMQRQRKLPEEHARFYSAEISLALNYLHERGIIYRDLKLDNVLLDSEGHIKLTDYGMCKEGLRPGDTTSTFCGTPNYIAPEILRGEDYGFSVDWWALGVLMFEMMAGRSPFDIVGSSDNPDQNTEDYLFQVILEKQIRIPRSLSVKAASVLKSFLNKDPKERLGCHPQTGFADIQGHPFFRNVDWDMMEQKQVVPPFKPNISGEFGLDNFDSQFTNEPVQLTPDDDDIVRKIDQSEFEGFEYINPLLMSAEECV

[2] = target: Protein kinase C alpha type (Homo sapiens, UniProt P17252); assay: Inhibition of full-length N-terminal GST-fused human PKC-alpha expressed in baculovirus expression system using (5FAM) RFARKGSLRQKNV as substrate after 60 mins by caliper assay
Huh-7 = assay: Antiproliferative activity against human HuH7 cells after 72 hrs by CellTiter-Glo assay; format: functional; conditions: Huh-7, 72 h
[3] = target: T2, Protein kinase C epsilon type (Homo sapiens, UniProt Q02156); assay: Inhibition of full-length N-terminal GST-fused human PKC-epsilon expressed in baculovirus expression system using (5FAM) RFARKGSLRQKNV as substrate after 60 mins by caliper assay
T2 sequence (Q02156 whole entry): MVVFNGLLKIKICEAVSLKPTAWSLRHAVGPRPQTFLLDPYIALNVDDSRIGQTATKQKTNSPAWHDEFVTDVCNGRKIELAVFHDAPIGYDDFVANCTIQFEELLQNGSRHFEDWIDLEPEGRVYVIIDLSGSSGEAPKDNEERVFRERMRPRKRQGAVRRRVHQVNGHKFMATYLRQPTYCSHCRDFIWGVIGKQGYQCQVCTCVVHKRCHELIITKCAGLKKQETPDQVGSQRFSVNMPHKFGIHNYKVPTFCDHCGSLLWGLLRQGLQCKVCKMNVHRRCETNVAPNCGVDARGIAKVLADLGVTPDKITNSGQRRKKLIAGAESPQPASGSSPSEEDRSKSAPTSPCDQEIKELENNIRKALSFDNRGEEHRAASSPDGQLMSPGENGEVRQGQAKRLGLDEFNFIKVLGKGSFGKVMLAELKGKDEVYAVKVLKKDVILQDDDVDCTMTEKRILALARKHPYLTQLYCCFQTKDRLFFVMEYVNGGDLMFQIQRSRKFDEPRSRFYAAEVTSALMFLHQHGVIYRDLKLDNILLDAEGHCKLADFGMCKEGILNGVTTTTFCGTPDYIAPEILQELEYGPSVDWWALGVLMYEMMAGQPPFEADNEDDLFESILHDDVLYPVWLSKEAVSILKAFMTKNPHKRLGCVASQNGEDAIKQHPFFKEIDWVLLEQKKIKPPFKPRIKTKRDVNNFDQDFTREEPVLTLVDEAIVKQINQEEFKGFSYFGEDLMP

HCCLM3 = assay: Antiproliferative activity against human HCCLM3 cells after 72 hrs by CellTiter-Glo assay; format: functional; conditions: HCCLM3, 72 h
[4] = Permeability across apical to basolateral side in human Caco2 cells; format: ADME, cell-based; conditions: Caco-2, read-out: permeability
Cytochrome P450 2D6 = Cytochrome P450 2D6 (Homo sapiens, UniProt P10635); assay: Inhibition of CYP2D6 (unknown origin); format: ADME
Cytochrome P450 2D6, sequence (P10635 whole entry): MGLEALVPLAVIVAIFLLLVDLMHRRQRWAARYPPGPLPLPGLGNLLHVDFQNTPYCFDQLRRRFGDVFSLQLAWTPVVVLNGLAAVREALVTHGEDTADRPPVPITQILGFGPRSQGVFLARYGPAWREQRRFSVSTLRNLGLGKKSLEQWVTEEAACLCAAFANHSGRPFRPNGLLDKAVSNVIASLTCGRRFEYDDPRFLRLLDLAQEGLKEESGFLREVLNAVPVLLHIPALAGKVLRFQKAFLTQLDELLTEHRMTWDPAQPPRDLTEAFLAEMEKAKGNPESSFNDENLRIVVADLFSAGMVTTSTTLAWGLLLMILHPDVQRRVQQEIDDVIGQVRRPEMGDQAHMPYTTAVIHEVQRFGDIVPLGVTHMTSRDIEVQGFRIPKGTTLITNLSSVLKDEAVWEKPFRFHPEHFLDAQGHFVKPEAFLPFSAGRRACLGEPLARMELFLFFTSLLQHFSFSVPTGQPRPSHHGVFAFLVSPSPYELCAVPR

[5] = Solubility of the compound at pH 4; format: physicochemical; conditions: buffer
[6] = Solubility of the compound at pH 7.4; format: physicochemical; conditions: buffer
[7] = Half life in mouse liver microsomes; format: ADME, microsome
[8] = Clearance in mouse liver microsomes; format: ADME, microsome; conditions: read-out: CLH
[9] = Half life in human liver microsomes; format: ADME, microsome
[10] = Clearance in human liver microsomes; format: ADME, microsome; conditions: read-out: CLH

Structure (SMILES) | IC50 [1] [µM] | IC50 [2] [µM] | also measured
O=c1[nH]ncc2ccccc12 [PHTHALAZINONE] | 589 |  | 
O=C1CCCc2cc(O)ccc21 | 1680 |  | 
Cn1ccc2cc(N)ccc21 | 1310 |  | 
COc1ccc2c(c1)C(=O)N(c1cnn3ccc(-c4ccnc5[nH]ccc45)cc13)C2 |  | 2.5 | 
Nc1ccc2[nH]cnc2c1 | 728 |  | 
Brc1ccnc2[nH]ccc12 | 615 |  | 
COc1cc2c(cc1-c1cnn3ccc(-c4ccnc5[nH]ccc45)cc13)CN(C)C2 |  | 0.14 | 
COc1cc2c(cc1-c1cnn3ccc(-c4ccnc5[nH]ccc45)cc13)CN(C(C)=O)C2 |  | 0.38 | 
Clc1ccnc2[nH]ccc12 | 1300 |  | 

The next lines start with results.

IC50 [1] [µM] | IC50 [2] [µM] | Structure (SMILES) | also measured
 | 0.064 | COc1cc2c(cc1-c1cnn3ccc(-c4ccnc5[nH]ccc45)cc13)CNC(C)C2 (centres undefined) | 
 | 0.43 | COc1cc2c(cc1-n1cnc3ccc(-c4ccnc5[nH]ccc45)nc31)CNC2 | 
 | 0.25 | COc1cc2c(cc1-n1cnc3cnc(-c4ccnc5[nH]ccc45)cc31)CNC2 | 
 | 1.4 | COc1cc2c(cc1-c1cnc3ccc(-c4ccnc5[nH]ccc45)nn13)CNC2 | 
 | 0.34 | COc1cc2c(cc1-c1cnc3ccc(-c4ccnc5[nH]ccc45)cn13)CNC2 | 
0.0027 | 0.045 | COc1cc2c(cc1-c1cnn3ccc(-c4ccnc5[nH]ccc45)cc13)CNC(CF)C2 (centres undefined) | GI50 (Huh-7): 3.3 µM; IC50 [3]: 0.045 µM; GI50 (HCCLM3): 6.6 µM
 | 0.11 | COc1cc2c(cc1-c1cnn3ccc(-c4ccnc5[nH]ccc45)cc13)CNC2 | 
 | 0.35 | COc1cc2c(cc1-c1cnn3ccc(-c4ccnc5[nH]ccc45)nc13)CNC2 | 
 | 0.071 | COc1cc2c(cc1-c1cnn3ccc(-c4ccnc5[nH]ccc45)cc13)CNCC2 | 
0.048 | 0.28 | COc1cc2c(cc1-n1cnc3ccc(-c4ccnc5[nH]ccc45)cc31)CNC2 | Papp A→B [4]: 0.57 ×10⁻⁶ cm/s; IC50 (Cytochrome P450 2D6): 24 µM; solubility [5]: 790 µg/mL (≈ 2070 µM); solubility [6]: 1.3 µg/mL (≈ 3.41 µM); GI50 (Huh-7): 9 µM; half-life [7]: 32 min; microsomal CLint [8]: 21.5 µL/min/mg; IC50 [3]: 0.56 µM; half-life [9]: 67 min; microsomal CLint [10]: 10 µL/min/mg
